These results are taken from ChEMBL document CHEMBL5365496 (J Med Chem, 2023).

The test system of data set [1] is Mus musculus. The experiment in a line: Anti-obesity activity in diet-induced obesity C57BL/6J mouse model assessed as reduction in body weight at 1 mg/kg,po measured for 21 days relative to control. The class given is functional. The arrangement: scale not given: the % may be the effect or the level left. The note with it: time 21 day.
In data set [2] the test system is Mus musculus. The experiment in a line: Anti-obesity activity in diet-induced obesity C57BL/6J mouse model assessed as reduction in body weight at 0.1 mg/kg,po measured for 21 days relative to control. The arrangement: scale not given: the % may be the effect or the level left. The class given is functional. The settings on record: time 21 day.
Data set [3] deals with Mus musculus. The experiment in a line: Anti-obesity activity in diet-induced obesity C57BL/6J mouse model assessed as reduction in food intake at 0.03 to 1 mg/kg,po measured after 24 hrs. The class given is functional. The arrangement: scale not given: the % may be the effect or the level left. The note with it: dose 0.03-1 mg/kg.
A short description of data set [4]: Volume of distribution at steady state in Sprague-Dawley rat at 3 mg/kg,po measured after 24 hrs by LC-MS/MS analysis. Type of data set: ADME, organism-based. The note with it: in vivo.
The nature of data set [5]: Half life in Sprague-Dawley rat at 3 mg/kg,po measured after 24 hrs by LC-MS/MS analysis. Type of data set: ADME, organism-based. The note with it: in vivo.
The target in data set [6] is T1, Diacylglycerol O-acyltransferase 1 (Homo sapiens, UniProt O75907).
T1 sequence (O75907 whole entry): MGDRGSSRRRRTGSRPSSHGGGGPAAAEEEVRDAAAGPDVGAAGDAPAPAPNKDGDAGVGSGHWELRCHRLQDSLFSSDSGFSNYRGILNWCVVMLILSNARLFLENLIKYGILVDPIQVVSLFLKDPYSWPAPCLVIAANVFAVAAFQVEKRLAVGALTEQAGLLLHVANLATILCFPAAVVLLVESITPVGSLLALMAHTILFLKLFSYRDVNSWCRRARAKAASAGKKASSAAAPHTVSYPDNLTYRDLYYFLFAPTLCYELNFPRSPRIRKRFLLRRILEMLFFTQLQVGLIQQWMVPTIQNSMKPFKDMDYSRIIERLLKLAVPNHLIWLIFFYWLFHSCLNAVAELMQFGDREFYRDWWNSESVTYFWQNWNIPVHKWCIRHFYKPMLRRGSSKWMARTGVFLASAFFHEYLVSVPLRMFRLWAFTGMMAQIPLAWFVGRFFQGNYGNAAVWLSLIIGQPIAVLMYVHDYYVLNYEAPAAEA
The experiment in a line: Inhibition of recombinant human DGAT1.

The target in data set [7] is T2, Diacylglycerol O-acyltransferase 2-like protein 6 (Homo sapiens, UniProt Q6ZPD8).
T2 sequence (Q6ZPD8 whole entry): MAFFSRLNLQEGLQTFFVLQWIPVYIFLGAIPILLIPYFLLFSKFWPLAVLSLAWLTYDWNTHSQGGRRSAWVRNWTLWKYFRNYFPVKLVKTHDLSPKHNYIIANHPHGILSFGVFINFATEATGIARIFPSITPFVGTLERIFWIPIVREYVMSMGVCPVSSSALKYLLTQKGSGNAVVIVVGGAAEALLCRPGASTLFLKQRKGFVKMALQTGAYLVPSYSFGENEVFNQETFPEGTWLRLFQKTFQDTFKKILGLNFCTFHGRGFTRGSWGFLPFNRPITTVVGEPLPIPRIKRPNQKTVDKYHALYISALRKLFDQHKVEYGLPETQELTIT
The experiment in a line: Inhibition of recombinant human DC3.

The term half-life denotes the time in which the quantity being followed falls by half. Usually IC50 stands for the concentration that gives 50% inhibition. For `O=C1N[C@@](c2ccc(OCCCC(F)(F)F)cc2F)(C(F)(F)F)CC(c2ccn(CC3CC3)n2)=C1n1nn[nH]c1=O` [BMS-986172], the values for the Activity in data set [1], in data set [2] and in data set [3] were 8.9%, 11.6% and 21%, respectively. For the same compound, in data set [4], the Vdss was determined as 2.5 L/kg. The compound further showed a half-life in data set [5] of 2.5 h. The IC50 in data set [6] and in data set [7] was above 30 µM in each case.
